In BindingDB's records for doi:10.1111/cbdd.12241 (Chengde Medical University, 2014):
pIC50: −log10 of the molar value.

Target: T1, Glycogen phosphorylase, muscle form (Oryctolagus cuniculus, UniProt P00489)
T1 sequence (P00489 whole entry): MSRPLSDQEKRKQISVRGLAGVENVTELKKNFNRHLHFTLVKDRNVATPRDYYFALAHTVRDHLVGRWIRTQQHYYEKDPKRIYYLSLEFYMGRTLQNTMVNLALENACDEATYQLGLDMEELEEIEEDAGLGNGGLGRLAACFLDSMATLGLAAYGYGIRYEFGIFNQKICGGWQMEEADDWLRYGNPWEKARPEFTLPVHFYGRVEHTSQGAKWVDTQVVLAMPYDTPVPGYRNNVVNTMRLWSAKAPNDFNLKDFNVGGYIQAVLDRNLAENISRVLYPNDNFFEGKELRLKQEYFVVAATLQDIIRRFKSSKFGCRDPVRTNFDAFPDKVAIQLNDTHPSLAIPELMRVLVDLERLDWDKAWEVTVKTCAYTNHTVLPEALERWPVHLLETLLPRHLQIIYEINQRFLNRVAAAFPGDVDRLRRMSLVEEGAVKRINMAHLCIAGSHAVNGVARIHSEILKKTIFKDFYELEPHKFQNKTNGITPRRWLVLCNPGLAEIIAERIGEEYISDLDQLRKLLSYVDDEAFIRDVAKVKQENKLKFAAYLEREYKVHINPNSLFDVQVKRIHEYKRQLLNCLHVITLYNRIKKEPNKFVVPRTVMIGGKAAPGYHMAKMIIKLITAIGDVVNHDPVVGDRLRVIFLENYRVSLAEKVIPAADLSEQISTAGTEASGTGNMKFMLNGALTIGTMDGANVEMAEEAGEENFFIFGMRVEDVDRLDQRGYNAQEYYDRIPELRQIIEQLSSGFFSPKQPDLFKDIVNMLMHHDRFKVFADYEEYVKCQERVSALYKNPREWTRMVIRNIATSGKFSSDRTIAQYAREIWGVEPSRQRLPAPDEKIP
Assay: Inhibition Assay
Settings: pH 7.2; 22 °C
Experimental: Each compound was dissolved in DMSO and diluted at different concentrations. RMGPa was added to 100 µL of buffer (50 mM Hepes pH 7.2, 100 mM KCl, 2.5 mM MgCl2, 0.5 mM glucose-1-phosphate, 1 mg/mL glycogen, and compound in 96-well microplates. Reaction was […] by the addition of 150 µL of 1 M HCl containing 10 mg/mL ammonium molybdate and 0.38 mg/mL malachite green and run for 25 min at 22 C.

SMILES	pIC50
CCCCCCCCC(=O)OCc1cn(CC(=O)O[C@H]2CC[C@]3(C)[C@H]4CC=C5[C@@H]6CC(C)(C)CC[C@]6(C(=O)OCc6ccccc6)CC[C@@]5(C)[C@]4(C)CC[C@H]3C2(C)C)nn1 [Benzyl 3b-[2-(4-nonanoyloxymethyl-1H-1,2,3-triazol-1-yl)acetoxy]olean-12-en-28-oate (Compound 7a)]	4.10
CC1(C)CC[C@]2(C(=O)OCc3ccccc3)CC[C@]3(C)C(=CC[C@@H]4[C@@]5(C)CC[C@H](OC(=O)Cn6cc(COC(=O)Cc7ccc8ccccc8c7)nn6)C(C)(C)[C@@H]5CC[C@]43C)[C@@H]2C1 [Benzyl 3b-{2-[4-(2-naphthalen-2-yl)acetoxymethyl-1H-1,2,3-triazol-1-yl]acetoxy}olean-12-en-28-oate (Compound 7g)]	4.62
CC1(C)CC[C@]2(C(=O)OCc3ccccc3)CC[C@]3(C)C(=CC[C@@H]4[C@@]5(C)CC[C@H](O)C(C)(C)[C@@H]5CC[C@]43C)[C@@H]2C1 [benzyl (4aS,6aS,6bR,8aR,10S,12aR,12bR,14bS)-10-hydroxy-2,2,6a,6b,9,9,12a-heptamethyl-1,3,4,5,6,7,8,8a,10,11,12,12b,13,14b-tetradecahydropicene-4a-carboxylate (Compound 4)]	3.34
COc1ccc(C(=O)OCc2cn(CC(=O)O[C@H]3CC[C@]4(C)[C@H]5CC=C6[C@@H]7CC(C)(C)CC[C@]7(C(=O)O)CC[C@@]6(C)[C@]5(C)CC[C@H]4C3(C)C)nn2)cc1 [3b-{2-[4-(4-methoxybenzoyloxy)methyl-1H-1,2,3-triazol-1-yl]acetoxy}olean-12-en-28-oic acid (Compound 8f)]	4.46
CCCCCCCCCCCCCCCC(=O)OCc1cn(CC(=O)O[C@H]2CC[C@]3(C)[C@H]4CC=C5[C@@H]6CC(C)(C)CC[C@]6(C(=O)O)CC[C@@]5(C)[C@]4(C)CC[C@H]3C2(C)C)nn1 [3b-[2-(4-palmitoyloxymethyl-1H-1,2,3-triazol-1-yl)acetoxy]olean-12-en-28-oic acid (Compound 8d)]	3.66
CCCCCCCCCCCCCCCCCC(=O)OCc1cn(CC(=O)O[C@H]2CC[C@]3(C)[C@H]4CC=C5[C@@H]6CC(C)(C)CC[C@]6(C(=O)O)CC[C@@]5(C)[C@]4(C)CC[C@H]3C2(C)C)nn1 [3b-[2-(4-stearoyloxymethyl-1H-1,2,3-triazol-1-yl)acetoxy]olean-12-en-28-oic acid (Compound 8e)]	4.95
CCCCCCCCC(=O)OCc1cn(CC(=O)O[C@H]2CC[C@]3(C)[C@H]4CC=C5[C@@H]6CC(C)(C)CC[C@]6(C(=O)O)CC[C@@]5(C)[C@]4(C)CC[C@H]3C2(C)C)nn1 [3b-[2-(4-nonanoyloxymethyl-1H-1,2,3-triazol-1-yl)acetoxy]olean-12-en-28-oic acid (Compound 8a)]	4.11
CCCCCCCCCC(=O)OCc1cn(CC(=O)O[C@H]2CC[C@]3(C)[C@H]4CC=C5[C@@H]6CC(C)(C)CC[C@]6(C(=O)O)CC[C@@]5(C)[C@]4(C)CC[C@H]3C2(C)C)nn1 [3b-[2-(4-decanoyloxymethyl-1H-1,2,3-triazol-1-yl)acetoxy]olean-12-en-28-oic acid (Compound 8b)]	4.59
CCCCCCCCCCCC(=O)OCc1cn(CC(=O)O[C@H]2CC[C@]3(C)[C@H]4CC=C5[C@@H]6CC(C)(C)CC[C@]6(C(=O)O)CC[C@@]5(C)[C@]4(C)CC[C@H]3C2(C)C)nn1 [3b-[2-(4-dodecanoyloxymethyl-1H-1,2,3-triazol-1-yl)acetoxy]olean-12-en-28-oic acid (Compound 8c)]	5.08
CCCCCCCCCC(=O)OCc1cn(CC(=O)O[C@H]2CC[C@]3(C)[C@H]4CC=C5[C@@H]6CC(C)(C)CC[C@]6(C(=O)OCc6ccccc6)CC[C@@]5(C)[C@]4(C)CC[C@H]3C2(C)C)nn1 [Benzyl 3b-[2-(4-decanoyloxymethyl-1H-1,2,3-triazol-1-yl)acetoxy]olean-12-en-28-oate (Compound 7b)]	3.84
COc1ccc(C(=O)OCc2cn(CC(=O)O[C@H]3CC[C@]4(C)[C@H]5CC=C6[C@@H]7CC(C)(C)CC[C@]7(C(=O)OCc7ccccc7)CC[C@@]6(C)[C@]5(C)CC[C@H]4C3(C)C)nn2)cc1 [Benzyl 3b-{2-[4-(4-methoxybenzoyloxy)methyl-1H-1,2,3-triazol-1-yl]acetoxy}olean-12-en-28-oate (Compound 7f)]	4.41
